Measurements as given in patent US20240408169A1 (priority 2023, published 2024).
pIC50: −log10 of the molar value. *1 amine or outer side, *2 acyl side, *3 side chain or, on linkers, in order; H or OH if unused. Where a SMILES comes first, the peptide text is derived from it. Bridges are numbered along the chain shown (N, C = ends). [ ]: non-standard residue; d: D form. The star is where a group is joined. X47 = C[C@@H]1CN(c2ccc(-c3ccc(Cl)cc3C[C@@H](C(=O)[*:2])N(C)[*:1])cc2)C[C@H](C)N1C; X74 = C[C@@H]1CN(c2ccc(-c3ccc(Cl)cc3C[C@@H](C(=O)[*:2])N(C)[*:1])cc2)C[C@@H](C)O1; X39 = CN1CCC(n2cc(-c3ccc(-c4ccc(Cl)cc4C[C@@H](C(=O)[*:2])N(C)[*:1])cc3)cn2)CC1; X73 = CN([C@@H](Cc1cc(Cl)ccc1-c1ccc(N2CCN(Cc3cnn(C)c3)CC2)cc1)C(=O)[*:2])[*:1]; X34 = CN1CC(N2CCN(c3ccc(-c4ccc(Cl)cc4C[C@@H](C(=O)[*:2])N(C)[*:1])cc3)CC2)C1; NMePhe(2-(4-MorPh),5-Cl) = CN[C@@H](Cc1cc(Cl)ccc1-c1ccc(N2CCOCC2)cc1)C(=O)O; X78 = CN1CCN(C2(c3ccc(-c4ccc(Cl)cc4C[C@@H](C(=O)[*:2])N(C)[*:1])cc3)CC2)CC1; X92 = CN1CCN(C(=O)c2ccc(-c3ccc(Cl)cc3C[C@@H](C(=O)[*:2])N(C)[*:1])cc2)CC1; X103 = CN1CCC(Oc2ccc(-c3ccc(Cl)cc3C[C@@H](C(=O)[*:2])N(C)[*:1])cc2)CC1; X36 = Cc1cc(-c2ccc(Cl)cc2C[C@@H](C(=O)[*:2])N(C)[*:1])ccc1N1CCN(C)CC1; X37 = CN1CCN(c2ccc(-c3ccc(F)cc3C[C@@H](C(=O)[*:2])N(C)[*:1])cn2)CC1; X8 = CN1CCN(C2CC=C(c3ccc(Cl)cc3C[C@@H](C(=O)[*:2])N(C)[*:1])CC2)CC1; X6 = CN([C@@H](Cc1cc(Cl)ccc1-c1ccc(-c2cccnc2)cc1)C(=O)[*:2])[*:1]; NMehhhLys(Me) = CN([C@@H](CCCCCCCN(C)[*:3])C(=O)[*:2])[*:1]; cBuCO(3,3-F2-1-CF3) = O=C(C1(C(F)(F)F)CC(F)(F)C1)*; Pro(trans-4-F) = O=C(O)[C@@H]1C[C@@H](F)CN1; Gly(cPr) = N[C@H](C(=O)O)C1CC1; X77 = CC(F)(C(=O)*)C(F)(F)F

Key:
CyclinE1/CDK2 = target: T1, CyclinE1/CDK2 (Homo sapiens, UniProt P24864); assay: Fluorescence Polarization (FP) competitive binding assay, Cyclin E1/Cdk2; conditions: 10 nM Cyclin E1/Cdk2, 2 nM FAM probe; average of 2-3 independent experiments; read-out: Cyclin E FP IC50;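 note: readings taken after two-hour equilibration at room temperature in HEPES buffer with NaCl, DTT, NP-40 and BSA, IC50 fitted from eight-concentration serial dilution series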
T1 construct: purchased Eurofins, discovery 14-475

CyclinB1/CDK1 = target: T2, CyclinB1/CDK1 (Homo sapiens, UniProt P14635); assay: Fluorescence Polarization (FP) competitive binding assay, Cyclin B1/Cdk1; conditions: 10 nM Cyclin B1/Cdk1, 2 nM FAM probe; average of 2-3 independent experiments; read-out: Cyclin B FP IC50;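 note: fluorescence polarization read after equilibration at room temperature, with IC50 taken from serially diluted dose-response curves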
T2 construct: purchased Eurofins, discovery 14-450

NCI-H1048 cells = assay: MTT proliferation assay, NCI-H1048; type: cell-based; conditions: 5 days compound exposure, 1:3 serial dilution starting at 10 μM;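 note: Dose-response in 96-well plates over 8 or 10 concentration points, with exposure spanning 3-4 cell doublings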
OVCAR3 cells = assay: MTT proliferation assay, OVCAR3; type: cell-based; conditions: 5 days compound exposure, 1:3 serial dilution starting at 10 μM;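 note: compound given as an 8- or 10-point series, one day after plating, with exposure covering roughly 3-4 cell doublings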
CyclinA2/CDK2 = target: T3, CyclinA2/CDK2 (Homo sapiens, UniProt P20248); assay: Fluorescence Polarization (FP) competitive binding assay, Cyclin A2/Cdk2; conditions: 8 nM Cyclin A2/Cdk2, 2 nM FAM probe; average of 2-3 independent experiments; read-out: Cyclin A FP IC50;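 note: plates equilibrated two hours at room temperature before polarization reading, IC50 fitted from eight-concentration compound titration curves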
T3 construct: purchased CRELUX Protein Services

WI-38 cells = assay: MTT proliferation assay, WI-38; type: cell-based; conditions: 3 days compound exposure, 1:3 serial dilution starting at 10 μM;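 note: Eight- or ten-point dilution series, with exposure length chosen to span about three to four cell doublings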

| SMILES | pIC50 (CyclinE1/CDK2) | pIC50 (CyclinB1/CDK1) | GI50 (NCI-H1048 cells) [nM] | GI50 (OVCAR3 cells) [nM] | pIC50 (CyclinA2/CDK2) | GI50 (WI-38 cells) [nM] |
| --- | --- | --- | --- | --- | --- | --- |
| CC(C)C[C@@H]1NC(=O)[C@@H](N(C)C(=O)[C@@H](NC(=O)[C@@H]2C[C@@H](F)CN2C(=O)C2(C(F)(F)F)CC(F)(F)C2)C2CC2)CCCCCCCN(C)C(=O)[C@H](Cc2cc(Cl)ccc2-c2ccc(OC3CCN(C)CC3)cc2)N(C)C1=O [Example 371] ({cBuCO(3,3-F2-1-CF3)}-[Pro(trans-4-F)][Gly(cPr)][NMehhhLys(Me)]L[X103]; lactam 3-C) | 6.04 | 7.70 | 10 | 10 | 7.70 | 1440 |
| CC(C)C[C@@H]1NC(=O)[C@@H](N(C)C(=O)[C@@H](NC(=O)[C@@H]2C[C@@H](F)CN2C(=O)C2(C(F)(F)F)CC(F)(F)C2)C2CC2)CCCCCCCN(C)C(=O)[C@H](Cc2cc(Cl)ccc2-c2ccc(N3CCN(Cc4cnn(C)c4)CC3)cc2)N(C)C1=O [Example 372] ({cBuCO(3,3-F2-1-CF3)}-[Pro(trans-4-F)][Gly(cPr)][NMehhhLys(Me)]L[X73]; lactam 3-C) | 6.37 | 7.70 | 10 | 10 | 7.70 | 2840 |
| Cc1cc(-c2ccc(Cl)cc2C[C@H]2C(=O)N(C)CCCCCCC[C@H](N(C)C(=O)[C@@H](NC(=O)[C@@H]3C[C@@H](F)CN3C(=O)C3(C(F)(F)F)CC(F)(F)C3)C3CC3)C(=O)N[C@@H](CC(C)C)C(=O)N2C)ccc1N1CCN(C)CC1 [Example 374] ({cBuCO(3,3-F2-1-CF3)}-[Pro(trans-4-F)][Gly(cPr)][NMehhhLys(Me)]L[X36]; lactam 3-C) | 6.06 | 7.70 | 10 | 10 | 7.70 | 2220 |
| CC(C)C[C@@H]1NC(=O)[C@@H](N(C)C(=O)[C@@H](NC(=O)[C@@H]2C[C@@H](F)CN2C(=O)C2(C(F)(F)F)CC(F)(F)C2)C2CC2)CCCCCCCN(C)C(=O)[C@H](Cc2cc(Cl)ccc2-c2ccc(-c3cccnc3)cc2)N(C)C1=O [Example 375] ({cBuCO(3,3-F2-1-CF3)}-[Pro(trans-4-F)][Gly(cPr)][NMehhhLys(Me)]L[X6]; lactam 3-C) | 5.76 | 7.70 | 10 | 20 | 7.70 | 16800 |
| CC(C)C[C@@H]1NC(=O)[C@@H](N(C)C(=O)[C@@H](NC(=O)[C@@H]2C[C@@H](F)CN2C(=O)C2(C(F)(F)F)CC(F)(F)C2)C2CC2)CCCCCCCN(C)C(=O)[C@H](Cc2cc(Cl)ccc2C2=CCC(N3CCN(C)CC3)CC2)N(C)C1=O (stereo partly drawn) [Example 376] ({cBuCO(3,3-F2-1-CF3)}-[Pro(trans-4-F)][Gly(cPr)][NMehhhLys(Me)]L[X8]; lactam 3-C) | 5.88 | 7.70 | 10 | 10 | 7.70 | 3450 |
| CC(C)C[C@@H]1NC(=O)[C@@H](N(C)C(=O)[C@@H](NC(=O)[C@@H]2C[C@@H](F)CN2C(=O)C(C)(F)C(F)(F)F)C2CC2)CCCCCCCN(C)C(=O)[C@H](Cc2cc(Cl)ccc2-c2ccc(N3CCOCC3)cc2)N(C)C1=O (stereo partly drawn) [Example 377] (X77-[Pro(trans-4-F)][Gly(cPr)][NMehhhLys(Me)]L[NMePhe(2-(4-MorPh),5-Cl)]; lactam 3-C) | 6.47 | 7.70 | 10 | 10 | 7.70 | 8160 |
| CC(C)C[C@@H]1NC(=O)[C@@H](N(C)C(=O)[C@@H](NC(=O)[C@@H]2C[C@@H](F)CN2C(=O)C2(C(F)(F)F)CC(F)(F)C2)C2CC2)CCCCCCCN(C)C(=O)[C@H](Cc2cc(Cl)ccc2-c2ccc(-c3cnn(C4CCN(C)CC4)c3)cc2)N(C)C1=O [Example 380] ({cBuCO(3,3-F2-1-CF3)}-[Pro(trans-4-F)][Gly(cPr)][NMehhhLys(Me)]L[X39]; lactam 3-C) | 5.66 | 7.70 | 20 | 30 | 7.52 | 1170 |
| CC(C)C[C@@H]1NC(=O)[C@@H](N(C)C(=O)[C@@H](NC(=O)[C@@H]2C[C@@H](F)CN2C(=O)C2(C(F)(F)F)CC(F)(F)C2)C2CC2)CCCCCCCN(C)C(=O)[C@H](Cc2cc(Cl)ccc2-c2ccc(C3(N4CCN(C)CC4)CC3)cc2)N(C)C1=O [Example 381] ({cBuCO(3,3-F2-1-CF3)}-[Pro(trans-4-F)][Gly(cPr)][NMehhhLys(Me)]L[X78]; lactam 3-C) | 5.88 | 7.70 | 20 | 40 | 7.70 | 2300 |
| CC(C)C[C@@H]1NC(=O)[C@@H](N(C)C(=O)[C@@H](NC(=O)[C@@H]2C[C@@H](F)CN2C(=O)C2(C(F)(F)F)CC(F)(F)C2)C2CC2)CCCCCCCN(C)C(=O)[C@H](Cc2cc(Cl)ccc2-c2ccc(N3CCN(C4CN(C)C4)CC3)cc2)N(C)C1=O [Example 383, (2S,4R)—N—((S)-2-(((3S,6S,9S)-3-((4-chloro-4′-(4-(1-methylazetidin-3-yl)piperazin-1-yl)-[1,1′-biphenyl]-2-yl)methyl)-6-isobutyl-1,4-dimethyl-2,5,8-trioxo-1,4,7-triazacyclohexadecan-9-yl)(methyl)amino)-1-cyclopropyl-2-oxoethyl)-1-(3,3-difluoro-1-(trifluoromethyl)cyclobutane-1-carbonyl)-4-fluoropyrrolidine-2-carboxamide] ({cBuCO(3,3-F2-1-CF3)}-[Pro(trans-4-F)][Gly(cPr)][NMehhhLys(Me)]L[X34]; lactam 3-C) | 6.28 | 7.70 | 10 | 10 | 7.70 | 2700 |
| CC(C)C[C@@H]1NC(=O)[C@@H](N(C)C(=O)[C@@H](NC(=O)[C@@H]2C[C@@H](F)CN2C(=O)C2(C(F)(F)F)CC(F)(F)C2)C2CC2)CCCCCCCN(C)C(=O)[C@H](Cc2cc(Cl)ccc2-c2ccc(N3C[C@@H](C)N(C)[C@@H](C)C3)cc2)N(C)C1=O [Example 384] ({cBuCO(3,3-F2-1-CF3)}-[Pro(trans-4-F)][Gly(cPr)][NMehhhLys(Me)]L[X47]; lactam 3-C) | 6.23 | 7.70 | 10 | 10 | 7.70 | 2210 |
| CCN(C(=O)[C@@H](NC(=O)[C@@H]1C[C@@H](F)CN1C(=O)C1(C(F)(F)F)CC(F)(F)C1)C1CC1)[C@H]1CCCCCCCN(C)C(=O)[C@H](Cc2cc(Cl)ccc2-c2ccc(N3CCN(C)CC3)cc2)N(C)C(=O)[C@H](CC(C)C)NC1=O [Example 388] | 5.41 | 7.70 | 20 | 20 | 7.70 | 3500 |
| CC(C)C[C@@H]1NC(=O)[C@@H](N(C)C(=O)[C@@H](NC(=O)[C@@H]2C[C@@H](F)CN2C(=O)C2(C(F)(F)F)CC(F)(F)C2)C2CC2)CCCCCCCN(C)C(=O)[C@H](Cc2cc(Cl)ccc2-c2ccc(N3C[C@@H](C)O[C@H](C)C3)cc2)N(C)C1=O [Example 389] ({cBuCO(3,3-F2-1-CF3)}-[Pro(trans-4-F)][Gly(cPr)][NMehhhLys(Me)]L[X74]; lactam 3-C) | 6.10 | 7.70 | 20 | 10 | 7.70 | 17600 |
| CC(C)C[C@@H]1NC(=O)[C@@H](N(C)C(=O)[C@@H](NC(=O)[C@@H]2C[C@@H](F)CN2C(=O)C2(C(F)(F)F)CC(F)(F)C2)C2CC2)CCCCCCCN(C)C(=O)[C@H](Cc2cc(Cl)ccc2-c2ccc(C(=O)N3CCN(C)CC3)cc2)N(C)C1=O [Example 390] ({cBuCO(3,3-F2-1-CF3)}-[Pro(trans-4-F)][Gly(cPr)][NMehhhLys(Me)]L[X92]; lactam 3-C) | 6.06 | 7.70 | 30 | 20 | 7.70 | 9240 |
| CC(C)C[C@@H]1NC(=O)[C@@H](N(C)C(=O)[C@@H](NC(=O)[C@@H]2C[C@@H](F)CN2C(=O)C2(C(F)(F)F)CC(F)(F)C2)C2CC2)CCCCCCCN(C)C(=O)[C@H](Cc2cc(F)ccc2-c2ccc(N3CCN(C)CC3)nc2)N(C)C1=O [Example 391] ({cBuCO(3,3-F2-1-CF3)}-[Pro(trans-4-F)][Gly(cPr)][NMehhhLys(Me)]L[X37]; lactam 3-C) | 6.21 | 7.70 | 10 | 10 | 7.52 | 7820 |
